{"source": "patent US7166611B2", "about": "“Pharmaceutical compositions having appetite suppressant activity” (priority 1997, dated 2007)", "type_in_all_cases": "in vivo, rat", "key": {"[1]": {"system": "male Wistar rats", "assay": "Example 44 single oral dose study: food consumption", "procedure": "(§1) Sample 1 to 3 were each administered as a single oral dose to male Wistar rats. Two additional control groups received vehicle (distilled water or DMSO). Orally administered fenfluramine (7.5 mg/kg) was included as a reference standard.\n(§2) Fifty-five male Wistar rats were used for the study.\n(§3) Bodyweights, food consumption (food hopper weight) and water consumption (bottle weight) were recorded daily at the same time each day from the day of arrival until the termination of the study.\n(§4) On Day 1, the rats received a single oral (gavage) dose according to the following table:\n(§5) Groups 1–8 were dosed using a constant dose volume of 10 ml/kg and groups 9–12 were dosed using a dose volume of 1 ml/kg.\n(§6) Food and water consumption were also measured at […] after dosing on Day 1.\n(§7) The post-dose food and water consumption measurements and bodyweights at each time-point for the P57-treated animals were compared with those for the relevant, similarly-treated vehicle control group using analysis of variance followed by Williams' test for comparisons with controls.\n(§8) The data for the fenfluramine-treated animals was compared with that for the vehicle-treated control group using Student's t test."}, "[2]": {"system": "male Wistar rats", "assay": "Example 44 single oral dose study: water consumption", "procedure": "as §1, §2, §3, §4, §5, §6, §7, §8"}, "[3]": {"assay": "Example 44 single oral dose study: bodyweight", "procedure": "as §1, §2, §3, §4, §5, §7, §8"}, "[4]": {"system": "male Wistar rats", "assay": "Example 44 single oral dose study: liver histopathology", "text": "Following the measurements of Day 8, the animals were killed by carbon dioxide asphyxiation, and the livers excised and placed in 10% buffered formalin, prior to histology.\nParaffin wax sections of each liver were taken at 4–5 μm and stained with haematoxylin and eosin. Additional sections were cut on a cryostat at 12 μm and stained for fat with Oil Red O (ORO).\nHistological examination was restricted to the liver."}, "[5]": {"conditions": "pre-dose data, before treatment, table rows = later dose groups"}, "[6]": {"conditions": "7.5 mg/kg single oral dose on Day 1"}, "[7]": {"conditions": "Group 11, 7.5 mg/kg, 3 examined"}}, "data": [{"smiles": "CCNC(C)Cc1cccc(C(F)(F)F)c1", "note": "(centres unmarked) [Fenfluramine, reference compound]", "values": [{"measurement": "Group mean food consumption (g ± sd) between Days: 1–2", "setting": "[1]; 7.5 mg/kg single oral dose", "result": "22.4 ± 3.19", "unit": "g"}, {"measurement": "Group mean food consumption (g ± sd) between Days: 2–3", "setting": "[1]; 7.5 mg/kg single oral dose", "result": "31.9 ± 0.84", "unit": "g"}, {"measurement": "Group mean food consumption (g ± sd) between Days: 3–4", "setting": "[1]; 7.5 mg/kg single oral dose", "result": "32.7 ± 2.50", "unit": "g"}, {"measurement": "Group mean food consumption (g ± sd) between Days: 4–5", "setting": "[1]; 7.5 mg/kg single oral dose", "result": "33.0 ± 2.55", "unit": "g"}, {"measurement": "Group mean food consumption (g ± sd) between Days: 5–6", "setting": "[1]; 7.5 mg/kg single oral dose", "result": "30.4 ± 0.23", "unit": "g"}, {"measurement": "Group mean food consumption (g ± sd) between Days: 6–7", "setting": "[1]; 7.5 mg/kg single oral dose", "result": "32.7 ± 1.90", "unit": "g"}, {"measurement": "Group mean food consumption (g ± sd) between Days: 7–8", "setting": "[1]; 7.5 mg/kg single oral dose", "result": "32.4 ± 1.60", "unit": "g"}, {"measurement": "food consumption at 6 and 24 hours post-dose versus vehicle-treated control group", "setting": "[1]; 7.5 mg/kg single oral dose", "result": "statistically significant reductions in food consumption"}, {"measurement": "Group mean food consumption (g ± sd) between Days: −2–−1", "setting": "[1]; [5]", "result": "29.7 ± 2.84", "unit": "g"}, {"measurement": "Group mean food consumption (g ± sd) between Days: −3–−2", "setting": "[1]; [5]", "result": "30.8 ± 0.54", "unit": "g"}, {"measurement": "Group mean food consumption (g ± sd) between Days: −4–−3", "setting": "[1]; [5]", "result": "27.0 ± 1.53", "unit": "g"}, {"measurement": "Group mean food consumption (g ± sd) between Days: −5–−4", "setting": "[1]; [5]", "result": "25.3 ± 4.03", "unit": "g"}, {"measurement": "Group mean food consumption (g ± sd) between Days: −6–−5", "setting": "[1]; [5]", "result": "29.1 ± 0.66", "unit": "g"}, {"measurement": "Group mean water consumption (g ± sd) between Days: 1–2", "setting": "[2]; 7.5 mg/kg single oral dose", "result": "34.1 ± 3.60", "unit": "g"}, {"measurement": "Group mean water consumption (g ± sd) between Days: 2–3", "setting": "[2]; 7.5 mg/kg single oral dose", "result": "37.2 ± 1.48", "unit": "g"}, {"measurement": "Group mean water consumption (g ± sd) between Days: 3–4", "setting": "[2]; 7.5 mg/kg single oral dose", "result": "36.7 ± 3.92", "unit": "g"}, {"measurement": "Group mean water consumption (g ± sd) between Days: 4–5", "setting": "[2]; 7.5 mg/kg single oral dose", "result": "33.8 ± 2.89", "unit": "g"}, {"measurement": "Group mean water consumption (g ± sd) between Days: 5–6", "setting": "[2]; 7.5 mg/kg single oral dose", "result": "33.7 ± 5.43", "unit": "g"}, {"measurement": "Group mean water consumption (g ± sd) between Days: 6–7", "setting": "[2]; 7.5 mg/kg single oral dose", "result": "32.1 ± 1.93", "unit": "g"}, {"measurement": "Group mean water consumption (g ± sd) between Days: 7–8", "setting": "[2]; 7.5 mg/kg single oral dose", "result": "33.6 ± 2.50", "unit": "g"}, {"measurement": "effects on water consumption", "setting": "[2]; 7.5 mg/kg single oral dose", "result": "No statistically significant effects"}, {"measurement": "Group mean water consumption (g ± sd) between Days: −2–−1", "setting": "[2]; [5]", "result": "31.6 ± 2.80", "unit": "g"}, {"measurement": "Group mean water consumption (g ± sd) between Days: −3–−2", "setting": "[2]; [5]", "result": "30.9 ± 2.12", "unit": "g"}, {"measurement": "Group mean water consumption (g ± sd) between Days: −4–−3", "setting": "[2]; [5]", "result": "34.7 ± 3.73", "unit": "g"}, {"measurement": "Group mean water consumption (g ± sd) between Days: −5–−4", "setting": "[2]; [5]", "result": "35.5 ± 7.49", "unit": "g"}, {"measurement": "Group mean water consumption (g ± sd) between Days: −6–−5", "setting": "[2]; [5]", "result": "47.0 ± 5.3", "unit": "g"}, {"measurement": "effects on bodyweight", "setting": "[3]; 7.5 mg/kg single oral dose", "result": "No statistically significant effects"}, {"measurement": "Group mean bodyweight (g ± sd) on Day: 2", "setting": "[3]; [6]", "result": "190.3 ± 10.97", "unit": "g"}, {"measurement": "Group mean bodyweight (g ± sd) on Day: 3", "setting": "[3]; [6]", "result": "197.7 ± 7.37", "unit": "g"}, {"measurement": "Group mean bodyweight (g ± sd) on Day: 4", "setting": "[3]; [6]", "result": "207.7 ± 7.23", "unit": "g"}, {"measurement": "Group mean bodyweight (g ± sd) on Day: 5", "setting": "[3]; [6]", "result": "217.7 ± 10.69", "unit": "g"}, {"measurement": "Group mean bodyweight (g ± sd) on Day: 6", "setting": "[3]; [6]", "result": "224.3 ± 10.12", "unit": "g"}, {"measurement": "Group mean bodyweight (g ± sd) on Day: 7", "setting": "[3]; [6]", "result": "234.3 ± 12.70", "unit": "g"}, {"measurement": "Group mean bodyweight (g ± sd) on Day: 8", "setting": "[3]; [6]", "result": "243.3 ± 9.24", "unit": "g"}, {"measurement": "Group mean bodyweight (g ± sd) on Day: Pre-dose (1)", "setting": "[3]; Day 1 before dosing", "result": "190.3 ± 9.71", "unit": "g"}, {"measurement": "Group mean bodyweight (g ± sd) on Day: −1", "setting": "[3]; [5]", "result": "182.8 ± 10.21", "unit": "g"}, {"measurement": "Group mean bodyweight (g ± sd) on Day: −2", "setting": "[3]; [5]", "result": "170.0 ± 9.15", "unit": "g"}, {"measurement": "Group mean bodyweight (g ± sd) on Day: −3", "setting": "[3]; [5]", "result": "160.0 ± 9.82", "unit": "g"}, {"measurement": "Group mean bodyweight (g ± sd) on Day: −4", "setting": "[3]; [5]", "result": "152.7 ± 9.09", "unit": "g"}, {"measurement": "Group mean bodyweight (g ± sd) on Day: −5", "setting": "[3]; [5]", "result": "133.2 ± 9.21", "unit": "g"}, {"measurement": "Liver (ORO stain): Hepatocyte fat - centrilobular(Total)", "setting": "[4]; [7]", "result": 1}, {"measurement": "Liver (ORO stain): Hepatocyte fat - centrilobular, Minimal", "setting": "[4]; [7]", "result": 1}, {"measurement": "Liver (ORO stain): No abnormalities detected", "setting": "[4]; [7]", "result": 2}, {"measurement": "Liver: Hepatocyte necrosis - focal (Total)", "setting": "[4]; [7]", "result": 0}, {"measurement": "Liver: Hepatocyte necrosis - focal, Minimal", "setting": "[4]; [7]", "result": 0}, {"measurement": "Liver: No abnormalities detected (incidence)", "setting": "[4]; [7]", "result": 0}, {"measurement": "Liver: Parenchymal inflammatory cell foci (Total)", "setting": "[4]; [7]", "result": 0}, {"measurement": "Liver: Parenchymal inflammatory cell foci, Minimal", "setting": "[4]; [7]", "result": 0}, {"measurement": "Liver: Portal leucocytes (Total)", "setting": "[4]; [7]", "result": 0}, {"measurement": "Liver: Portal leucocytes, Minimal", "setting": "[4]; [7]", "result": 0}, {"measurement": "Liver: Portal lymphoid infiltration (Total)", "setting": "[4]; [7]", "result": 3}, {"measurement": "Liver: Portal lymphoid infiltration, Minimal", "setting": "[4]; [7]", "result": 3}, {"measurement": "histological examination of the liver", "setting": "[4]; all doses tested, single oral dose, livers taken Day 8", "result": "No treatment-related changes were detected"}]}]}
